How the values were obtained:
primary rat Leydig cells [1] = test: hCG-stimulated testosterone production in primary rat Leydig cells treated with dexamethasone with or without glucocorticoid receptor antagonist (Elisa); assay type: cell-based; settings: for Testosterone Production, Average value ± SD (%): hCG alone = 100, basal = 0
Method: (§1) Testicular cells were prepared from the testicles of sexually mature, 12-week old, male Wistar rats by means of a collagenase treatment. Leydig cells were obtained from this preparation by a continuous Percoll gradient centrifugation.
(§2) Freshly prepared Leydig cells were sown in microtiter plates in 100 μL of DMEM/F12 with phenol red (20,000) cells/well) with addition of 0.1% BSA, penicillin (100 U/ml) and streptomycin (100 μg/ml). After one hour, the medium was changed with addition of substance. For 18 hours, the Leydig cells were incubated with dexamethasone alone or together with glucocorticoid receptor antagonists (250 μL of DMEM/well with addition of penicillin (100 U/ml) and streptomycin (100 μg/ml)). […] Ethanol was used as solvent for dexamethasone and the glucocorticoid receptor antagonists; the final concentration of the ethanol was not more than 0.2%.
Aliquots of the supernatant were frozen at −70° C. Testosterone was measured with a commercial Elisa (IBL, Hamburg). The standard curve of testosterone Elisa was then adapted to the cell culture conditions.

primary rat Leydig cells [2] = test: Cell damage: activity of mitochondrial succinate dehydrogenase (WST-1 test) in primary rat Leydig cell cultures; assay type: cell-based
Method: as §1, §2
Parallel to the testosterone measurement, cell damage was determined after the 26 hours by measuring the activity of the mitochondrial succinate dehydrogenase (WST-1 test, Böhringer, Mannheim).

[3] = system: male rats of the CD breeding line; test: Male sexual behavior of rats after chronic dexamethasone treatment with or without RU 38486; assay type: in vivo, rat; settings: for Male Sexual Behavior (Copulations in 5 minutes): day 9, average ± standard error
Method: (§3) Sexually mature, 3-month old male rats of the CD breeding line (Charles River GmbH, Sulzfeld, Germany) were kept in groups of 4 animals under controlled illumination (light:darkness 12:12 hours) with free access to food and drinking water. After a 1-week adaptation, the animals were tested by exposure to ovarectomized, estrogen-treated females for the presence of male sexual behavior (G. Dörner, Hormones and brain differentiation, Elsevier, Amsterdam, 1976, pp. 126-132). […] The animals of the reference group received intraperitoneal injections of dexamethasone (Fortecortin: Merck, Darmstadt, Germany) daily according to the following schedule: 0.5 mg/kg on days 1 to 3, 1 mg/kg on days 4 to 6 and 1.5 mg/kg on days 7 to 9. The control animals were injected with placebo (0.9% sterile NaCl solution. In addition to the dexamethasone treatment, the experimental group received subcutaneous injections of the glucocorticoid receptor antagonist RU 38486 (Sigma, Deisenhofen, Germany) in sesame oil solution in a dose of 10 mg/kg daily according to the schedule given above.
(§4) Male sexual behavior was evaluated on the ninth day by the method given above. After the behavior test, blood samples were taken from the retroorbital plexus for determining the serum testosterone level. The testosterone was determined with a commercial test formulation (IBL, Hamburg, Germany).

[4] = system: male rats of the CD breeding line; test: Serum testosterone level of rats after chronic dexamethasone treatment with or without RU 38486; assay type: in vivo, rat; settings: for Serum Testosterone: day 9, average ± standard error
Method: as §3, §4

[5] = hCG 0.5 ng/ml + 100 nM DEX alone
[6] = dexamethasone alone i.p. 0.5-1.5 mg/kg daily for 9 days
[7] = hCG 0.5 ng/ml + 100 nM DEX + glucocorticoid receptor antagonist 1 μm
[8] = hCG + 100 nM DEX + glucocorticoid receptor antagonist 1 μm
[9] = dexamethasone i.p. 0.5-1.5 mg/kg daily for 9 days + RU 38486 s.c. 10 mg/kg daily
[10] = simultaneous administration of dexamethasone and RU 38486

Row | SMILES | Testosterone Production, Average value ± SD (primary rat Leydig cells [1]; [7]) [ng/mL] | Testosterone Production, Average value ± SD (%) (primary rat Leydig cells [1]; [7]) | Succinate Dehydrogenase Activity, Average value ± SD (primary rat Leydig cells [2]; [8]) [Absorptions Units] | other results
1 | C[C@@H]1C[C@H]2[C@@H]3CCC4=CC(=O)C=C[C@]4(C)[C@@]3(F)[C@@H](O)C[C@]2(C)[C@@]1(O)C(=O)CO [DEX, dexamethasone] | – | – | – | Testosterone Production, Average value ± SD (primary rat Leydig cells [1]; [5]): 2.00 ± 0.58P ng/ml; Testosterone Production, Average value ± SD (%) (primary rat Leydig cells [1]; [5]): 44.63 ± 14.08P %; Effect on mitochondrial succinate dehydrogenase activity (in words) (primary rat Leydig cells [2]; dexamethasone 10^-7 M): significant inhibition of the mitochondrial activity; Succinate Dehydrogenase Activity, Average value ± SD (primary rat Leydig cells [2]; [5]): 0.192 ± 0.036 Absorptions Units; Male Sexual Behavior (Copulations in 5 minutes) [3, 6]: 4.0 ± 0.9 Copulations in 5 minutes; Serum Testosterone [4, 6]: 2.3 ± 0.2 ng/mL
2 | COCC1(OC)CCC2C3CCC4=CC(=O)CCC4=C3C(c3ccc(C(=NO)C(F)(F)F)cc3)CC21C (stereo not drawn) [GRA1, 4-(17β-methoxy-17α-(methoxymethyl)-estra-4,9-diene-3-one-11β-yl]2,2,2-trifluoroacetophenone-1(Z)-oxime] | 3.57 ± 0.83 | 83.00 ± 20.40 | 0.289 ± 0.040 | –
3 | C[C@]12C[C@H](c3ccc4c(c3)OCO4)C3=C4CCC(=O)C=C4CC[C@H]3[C@@H]1CC[C@@]2(O)C#Cc1ccc(S(C)(=O)=O)cc1 [GRA2] | 3.48 ± 0.64 | 80.97 ± 15.47 | 0.363 ± 0.032 | –
4 | CC12CC(c3ccc(C=NO)cc3)C3=C4CCC(=O)C=C4CCC3C1CCC2(O)C#Cc1ccc(S(C)(=O)=O)cc1 (stereo not drawn) [GRA3, 4-[17β-hydroxy-17α,21-(4′-methylsulfonylphenyl)-19-nor-3-oxopregna-4,9-diene-20-yn-11β-yl]benzaldehyde-1(E)-oxime] | 4.52 ± 1.01 | 106.30 ± 24.75 | 0.313 ± 0.018 | –
5 | CC#C[C@]1(O)CC[C@H]2[C@@H]3CCC4=CC(=O)CCC4=C3[C@@H](c3ccc(N(C)C)cc3)C[C@@]21C [RU38486, 11β-dimethylaminophenyl-17β-hydroxy-17α-propinyl-estra-4,9-diene-3-one] | 4.48 ± 1.14 | 105.23 ± 27.83 | 0.311 ± 0.031 | Male Sexual Behavior (Copulations in 5 minutes) [3, 9]: 9.2 ± 1.0 Copulations in 5 minutes; Effect on male sexual behavior (in words) [3, 10]: retention of male sexual behavior at the level of the placebo group; Serum Testosterone [4, 9]: 20.2 ± 4.9 ng/mL; Effect on serum testosterone concentration (in words) [4, 10]: prevented the reduction in the serum testosterone concentration
